The test relates to RAW264.7. In words: TRAP staining: RANKL-induced osteoclast differentiation, count of multinucleated TRAP+ cells. The class given is cell-based. The text has this: Les préostéoblastes primaires ont été isolés à partir de la calotte crânienne de rats Wistar nouveaux-nés par digestion enzymatique comme précédemment décrit [Declercq, H., Van den Vreken, N., De Maeyer, E., Verbeeck, R., Schacht, E., De Ridder, L., and Cornelissen, M. (2004). Isolation, proliferation and differentiation of osteoblastic cells to study cell/biomaterial interactions: comparison of different isolation techniques and source. Biomaterials 25, 757-68.]. Les précurseurs d'ostéoclastes RAW264.7 ont été obtenus auprès de l'ATCC (Manassas, VA, USA). Les préostéoblastes et les RAW264.7 ont été cultivés dans du milieu α-MEM (Invitrogen, Carlsbad, CA, USA) supplémenté avec 10% de SVF décomplémenté et de 100 unités/ml de pénicilline-streptomycine.
Pour la coloration TRAP, 60.000 cellules RAW264.7 ont été ensemencées dans des puits de plaques 12 puits pendant 12 heures puis traitées avec du DMSO/éthanol comme témoin ou de la fisétine (5 µM dans le DMSO) ou du DHA (50µM dans l'éthanol) ou la combinaison des deux (Fisétine 5 µM et DHA 50 µM) pendant 3 heures. Les cellules ont ensuite été induites à se différencier en présence de RANKL (50 ng/ml) avec du DMSO/éthanol ou de la fisétine (5 µM) ou du DHA (50 µM) ou la combinaison des deux (Fisétine 5 µM et DHA 50 µM) durant 4 jours avec un changement de milieux après 2 jours. De la BSA délipidée et sans endotoxines a été utilisée pour solubiliser le DHA avec un rapport 1/5 (BSA/DHA).
La coloration TRAP a été réalisée en utilisant le kit « leukocyte acid phosphatase » (Sigma-Aldrich) selon les recommandations du fournisseur après fixation des cellules. Les cellules TRAP+ multinucléées ont ensuite été comptées.

A word on the inhibition: it is the drop in the measured response relative to a control, in per cent. As for `CC/C=C\C/C=C\C/C=C\C/C=C\C/C=C\C/C=C\CCC(=O)O` [DHA, acide docosahexaénoïque], the inhibition at 50 µM (Mus musculus, RAW264.7, 96 h, DHA 50µM, RANKL 50 ng/ml, 4 days, vs RANKL condition, read-out: inhibition de l'induction par RANKL de la formation de cellules multinucléées TRAP+ (ostéoclastes)) is 23%. Also, where the note is “condition RANKL+DHA (50µM), RANKL alone 735+/-251”, the “ostéoclastes/cm^2” value is on record as 564+/-259 ostéoclastes/cm^2.

For the origin of these results see patent EP2999467B1, “USE OF A COMBINATION OF TWO COMPOUNDS FOR THE TREATMENT AND/OR PREVENTION OF BONE DISORDERS” (Institut National de la Recherche Agronomique (INRA), priority 2013, dated 2014).
